# Counter-ions that a name gives are not always drawn. Like-named read-outs stand apart in the source and are kept apart here.
# Columns and labels:
# Assay type in all cases: biochemical
# butyryl cholinesterase = butyryl cholinesterase (Homo sapiens, UniProt P06276)
# acetyl cholinesterase = acetyl cholinesterase (Homo sapiens, UniProt P22303)
# pseudocholinesterase = molecular target: T1, pseudocholinesterase (Homo sapiens, UniProt P06276); test: Eserine salicylate added to fresh human serum specimens, absorbance change between 10 and 30 minutes incubation (Example 4); details: for Absorbance change: 10 to 30 minutes incubation
# T1 construct: hydrolysis of S-acyl substrate (BALB) with chromogenic sulfhydryl reagent
# lipase = test: Effect on lipase under the test conditions
# [1] = molecular target: T2, human serum containing naturally occurring pseudocholinesterases (Homo sapiens, UniProt P06276)
# T2 construct: human serum containing naturally occurring pseudocholinesterases; from tissue; host or cells: human serum (Serum A, Serum B)
# [2] = Reagent without lipase and without eserine salt, used to assay cholinesterase solutions (Example 4); details: 1.17 units of acetyl cholinesterase or 0.36 units of butyryl cholinesterase; no lipase and no eserine salt
# Protocol: The four-reagent kit of Example 1 is utilized as follows, using duplicate specimen vials labelled "Patient-Blank", "Patient", "Blank 10 Minutes" and "Blank 30 Minutes", and the following procedure.
# The activity of serum lipase is proportional to the absorbance at 412 nanometers, and is calculated as follows:
# Lipase activity per 20 minutes= Absorbance [patient vial-Blank vial] (30 minutes) -Absorbance [patient vial-Blank vial] (10 minutes)
# A reagent composition is formulated to contain the following: […]
# Final pH about 8.8. Using a procedure similar to that of Example 2, the reagent was used to assay solutions containing 1.17 units of acetyl cholinesterase (a true cholinesterase) or 0.36 units of butyryl cholinesterase (a pseudocholinesterase). Acetyl cholinesterase produced an absorbance change of 0.011 absorbance units and butyryl cholinesterase produced a change of 0.421 absorbance units.
# butyryl cholinesterase, sequence (P06276 29-602): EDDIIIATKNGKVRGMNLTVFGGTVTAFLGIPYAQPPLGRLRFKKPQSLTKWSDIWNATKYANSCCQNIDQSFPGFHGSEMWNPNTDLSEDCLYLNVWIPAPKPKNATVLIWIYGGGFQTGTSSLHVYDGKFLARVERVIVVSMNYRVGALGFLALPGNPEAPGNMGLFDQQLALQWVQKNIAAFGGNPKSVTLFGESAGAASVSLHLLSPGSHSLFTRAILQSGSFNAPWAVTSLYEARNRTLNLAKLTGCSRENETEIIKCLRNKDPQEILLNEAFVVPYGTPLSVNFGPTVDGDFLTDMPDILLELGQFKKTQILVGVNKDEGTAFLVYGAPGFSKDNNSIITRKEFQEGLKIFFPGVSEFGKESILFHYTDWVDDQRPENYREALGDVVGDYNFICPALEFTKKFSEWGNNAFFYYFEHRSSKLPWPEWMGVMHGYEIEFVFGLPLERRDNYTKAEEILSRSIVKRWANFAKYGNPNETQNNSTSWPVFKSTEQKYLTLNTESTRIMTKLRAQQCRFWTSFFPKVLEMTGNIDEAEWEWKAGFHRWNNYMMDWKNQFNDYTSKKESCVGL
# T2 sequence (P06276 29-602): as above
# T1 sequence (P06276 29-602): as above
# acetyl cholinesterase, sequence (P22303 32-614): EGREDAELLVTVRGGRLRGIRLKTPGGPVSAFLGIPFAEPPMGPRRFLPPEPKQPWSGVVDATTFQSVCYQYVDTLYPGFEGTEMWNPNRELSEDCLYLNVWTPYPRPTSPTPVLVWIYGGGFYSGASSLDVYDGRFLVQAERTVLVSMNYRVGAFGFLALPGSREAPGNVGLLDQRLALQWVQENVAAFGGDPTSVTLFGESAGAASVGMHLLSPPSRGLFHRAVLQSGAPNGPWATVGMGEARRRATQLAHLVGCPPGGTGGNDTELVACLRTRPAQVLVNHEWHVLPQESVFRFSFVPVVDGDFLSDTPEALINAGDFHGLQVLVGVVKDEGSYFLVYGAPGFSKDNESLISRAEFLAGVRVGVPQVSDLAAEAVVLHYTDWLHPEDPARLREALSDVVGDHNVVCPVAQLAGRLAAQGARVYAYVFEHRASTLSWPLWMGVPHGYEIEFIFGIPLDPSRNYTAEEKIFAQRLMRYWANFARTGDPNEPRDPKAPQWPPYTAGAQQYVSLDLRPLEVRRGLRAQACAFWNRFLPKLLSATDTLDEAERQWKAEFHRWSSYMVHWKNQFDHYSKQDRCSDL
compound,measurement,setting,value
"CNC(=O)Oc1ccc2c(c1)[C@]1(C)CCN(C)[C@@H]1N2C [Eserine Salicylate, Eserine salicylate]","Activity, Butyryl Cholinesterase",butyryl cholinesterase,0.182 ΔAbsorbance per 20 minutes incubation
same,inhibition of BALB hydrolysis by pseudocholinesterase (in words),butyryl cholinesterase,significant inhibition
same,"Activity, Acetyl Cholinesterase",acetyl cholinesterase,0.027 ΔAbsorbance per 20 minutes incubation
same,specificity for serum pseudocholinesterase,pseudocholinesterase,highly specific for serum pseudocholinesterase
same,improvement with increasing inhibitor concentration,pseudocholinesterase; concentrations increasing from 0.02 to 0.05 millimolar,little or no improvement
same,inhibition of pseudocholinesterase (in words),"pseudocholinesterase; fresh human serum, Example 4",inhibition of pseudocholinesterase
same,Absorbance change,"pseudocholinesterase; fresh human serum, 5 microliters (0.005 millimolar) of 1 millimolar eserine salicylate added",0.501
same,Absorbance change,"pseudocholinesterase; fresh human serum, 10 microliters of 1 millimolar eserine salicylate added",0.495
same,Absorbance change,"pseudocholinesterase; fresh human serum, 20 microliters of 1 millimolar eserine salicylate added",0.475
same,Absorbance change,"pseudocholinesterase; fresh human serum, 30 microliters of 1 millimolar eserine salicylate added",0.490
same,Absorbance change,"pseudocholinesterase; fresh human serum, 40 microliters of 1 millimolar eserine salicylate added",0.496
same,Absorbance change,"pseudocholinesterase; fresh human serum, 50 microliters of 1 millimolar eserine salicylate added",0.492
same,inhibition of lipase,lipase,does not inhibit lipase
same,"Activity, Serum A",[1],0.078 ΔAbsorbance per 20 minutes incubation
same,"Activity, Serum B",[1],0.092 ΔAbsorbance per 20 minutes incubation
"CN(C)C(=O)Oc1cccc([N+](C)(C)C)c1 [Neostigmine Methyl Sulfate, neostigmine methylsulfate]","Activity, Butyryl Cholinesterase",butyryl cholinesterase,0.187 ΔAbsorbance per 20 minutes incubation
same,inhibition of BALB hydrolysis by pseudocholinesterase (in words),butyryl cholinesterase,significant inhibition
same,"Activity, Acetyl Cholinesterase",acetyl cholinesterase,0.025 ΔAbsorbance per 20 minutes incubation
same,"Activity, Serum A",[1],0.098 ΔAbsorbance per 20 minutes incubation
same,"Activity, Serum B",[1],0.081 ΔAbsorbance per 20 minutes incubation
"O=S(=O)(F)Cc1ccccc1 [PMSF, phenyl methyl sulfonyl fluoride]","Activity, Butyryl Cholinesterase","butyryl cholinesterase; 50 microliters of butyryl cholinesterase, 7.2 units per ml, Eserine Salicylate 0.037 μm, Neostigmine Methyl Sulfate 0.037 mM, PMSF 0.37 mM",0.338 ΔAbsorbance per 20 minutes incubation
same,"Activity, Acetyl Cholinesterase","acetyl cholinesterase; 50 microliters of acetyl cholinesterase, 10.4 units per ml, Neostigmine Methyl Sulfate 0.037 mM, PMSF 0.37 mM",0.021 ΔAbsorbance per 20 minutes incubation
same,"Activity, Serum A","[1]; 50 microliters of human Serum A, Eserine Salicylate 0.037 μm, Neostigmine Methyl Sulfate 0.037 mM, PMSF 0.37 mM",0.487 ΔAbsorbance per 20 minutes incubation
same,"Activity, Serum B","[1]; 50 microliters of human Serum B, Eserine Salicylate 0.037 μm, Neostigmine Methyl Sulfate 0.037 mM, PMSF 0.37 mM",0.383 ΔAbsorbance per 20 minutes incubation
same,effect in inhibiting the interfering hydrolysis of the S-acyl compound (in words),"[1]; serum samples, without pseudocholinesterase inhibitor",little or no effect
Acetyl cholinesterase,Absorbance change,[2],0.011 absorbance units

# — patent US4279994A (priority 1979, dated 1981)
